# Measurements published in patent US9469653B2, “Pharmaceutical compositions for preventing or treating degenerative brain disease and method of screening the same” (KOREA INSTITUTE OF SCIENCE AND TECHNOLOGY, priority 2011, dated 2016).
# Target: T1, human MAO-B enzyme (Homo sapiens (Human), UniProt P27338)
# Test: Screening of MAO-B activity inhibition (Amplex Red monoamine oxidase assay kit, benzylamine substrate)
# Type: biochemical
# Settings: 10 uM of the synthesized compound, pargyline-corrected
# Procedure: A stock solution was prepared using a human MAO-B enzyme (purchased from Aldrich) and a Amplex® Red monoamine oxidase assay kit according to a preparation manual. The kit includes a 5× reaction buffer, an Amplex® red reagent (1 mg), HRP, DMSO, H2O2, p-tyramine (substrate of MAO-A, B), benzylamine (substrate of MAO-B), clorgiline (inhibitor of MAO-A), and pargyline (inhibitor of MAO-B). Among these reagents in the kit, benzylamine was used as a substrate for MAO-B, and pargyline was used as an MAO-B inhibitor. A solution as overall substrates was prepared as follows. 200 ul of a solution of 1 mg of Amplex® red sufficiently dissolved in 200 ul of DMSO, 100 ul of a mixed solution of HRP and 1 ml of a 1× buffer, 200 ul of a solution of benzylamine dissolved in 1.2 ml of dH2O were added to 9.5 ml of a 1× buffer to reach a total volume of 10 mL, which is sufficient for 100 wells. 0.5 ul of a mixture of MAO-B inhibitor pargyline and 1 ml of dH2O was put into each well. First, the activity of MAO-B was determined using 10 uM of the synthesized compound.
# 96 wells were injected with positive and negative types, and the wile type. The positive type included only substrate and hydrogen peroxide, and the negative type included only substrate. For the wild type, corresponding wells were injected with the enzyme, substrate, and MAO-B inhibitor, but with no synthesized compound. Afterward, 2 ul of the synthesized compound (1 mM) was added into each well, and the human MAO-B enzyme was put only into the 1st row of wells. 0.5 ug of the human MAO-B was put into each well along with 100 ul of a 1× buffer. The human MAO-B enzyme was put into the 2nd row of the wells along with 0.5 ul of a pargyline, the MAO-B inhibitor. To reduce an experimental error for accuracy, the test was repeated three times for each compound. After 30 minutes, 100 ul of the substrate solution was added into each well in a darkroom. The test was performed in the darkroom due to light sensitivity of the Amplex® reagent. Finally, a total volume of the reaction solution per well reached 200 ul. After about 2 to 3 hours, chromophoric degrees of the samples were measured. A variation in data values for the 1st and 2nd rows of the wells indicates the pure reaction activity of the MAO-B enzyme with the substrate. Using the samples with the synthesized compound the remaining activity of MAO-B after inhibited by the synthesized compound may be determined. This is because the activities of the other enzymes excluding the MAO-B enzyme may be excluded through this method. Compounds with high inhibitory activity at a concentration of 10 uM were screened from among the synthesized compounds at a compound concentration of 10 uM.
# T1 sequence (P27338 whole entry): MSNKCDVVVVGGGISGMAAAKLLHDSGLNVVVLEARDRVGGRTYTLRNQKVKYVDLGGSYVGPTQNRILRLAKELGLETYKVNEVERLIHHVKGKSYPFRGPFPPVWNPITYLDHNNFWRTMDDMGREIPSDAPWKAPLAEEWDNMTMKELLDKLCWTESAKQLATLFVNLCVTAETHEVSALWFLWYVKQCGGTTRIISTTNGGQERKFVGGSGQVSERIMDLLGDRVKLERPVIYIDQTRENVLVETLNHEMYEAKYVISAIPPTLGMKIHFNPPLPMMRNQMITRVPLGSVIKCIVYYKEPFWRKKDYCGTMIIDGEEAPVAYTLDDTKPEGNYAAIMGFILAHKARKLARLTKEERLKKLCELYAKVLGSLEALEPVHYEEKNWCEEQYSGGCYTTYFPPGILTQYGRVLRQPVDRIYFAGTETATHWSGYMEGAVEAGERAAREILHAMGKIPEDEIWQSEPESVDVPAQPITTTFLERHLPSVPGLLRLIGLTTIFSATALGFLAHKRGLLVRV
row,Compound,Remaining activity of MAO-B (%)
1,"N#Cc1ccc(-c2nc3ccc(N4CCCCC4)nc3o2)cc1 [Example 5-50, 4-(5-(piperidine-1-yl)oxazolo[5,4-b]pyridine-2-yl)benzonitrile]",71.2
2,"Clc1ccc(-c2nc3ccc(NCc4ccccc4)nc3o2)cc1 [Example 5-61, N-benzyl-2-(4-chlorophenyl)oxazolo[5,4-b]pyridine-5-amine]",46.4
3,"N#Cc1cccc(-c2nc3ccc(N4CCCCC4)nc3o2)c1 [Example 5-44, 3-(5-(piperidine-1-yl)oxazolo[5,4-b]pyridine-2-yl)benzonitrile]",10.1
4,"c1ccc(-c2nc3ccc(N4CCCCC4)nc3o2)cc1 [Example 5-37, 2-phenyl-5-(piperidine-1-yl)oxazolo[5,4-b]pyridine]",3.09
5,"Clc1ccccc1-c1nc2ccc(N3CCCC3)nc2o1 [Example 5-32, 2-chlorophenyl-5-(pyrrolidine-1-yl)oxazolo[5,4-b]pyridine]",7.7
6,Brc1ccc(-c2nc3ccc(N4CCCC4)nc3o2)cc1 [Example 5-36],33.5
7,"Fc1ccc(-c2nc3ccc(N4CCCCC4)nc3o2)cc1 [Example 5-45, 2-(4-fluorophenyl)-5-(piperidine-1-yl)oxazolo[5,4-b]pyridine]",26.5
8,"c1ccc(-c2nc3ccc(N4CCCCCC4)nc3s2)cc1 [Example 5-55, 5-(azepane-1-yl)-2-phenylthiazolo[5,4-b]pyridine]",−1.8
9,"COc1ccc(-c2nc3ccc(N4CCCCC4)nc3o2)cc1 [Example 5-49, 2-(4-methoxyphenyl)-5-(piperidine-1-yl)oxazolo[5,4-b]pyridine]",15.8
10,"Clc1cccc(-c2nc3ccc(N4CCCCC4)nc3o2)c1 [Example 5-41, 2-chlorophenyl-5-(piperidine-1-yl)oxazolo[5,4-b]pyridine]",17
11,"Fc1cccc(-c2nc3ccc(NCc4ccccc4)nc3o2)c1 [Example 5-59, N-benzyl-2-(3-fluorophenyl)oxazolo[5,4-b]pyridine-5-amine]",51.9
12,"Clc1cccc(-c2nc3ccc(NCc4ccccc4)nc3o2)c1 [Example 5-60, N-benzyl-2-(3-chlorophenyl)oxazolo[5,4-b]pyridine-5-amine]",55.4
13,"c1ccc(CNc2ccc3nc(-c4ccccc4)sc3n2)cc1 [Example 5-58, N-benzyl-2-phenylthiazolo[5,4-b]pyridine-5-amine]",60.8
14,"Clc1cccc(-c2nc3ccc(NC4CCCCC4)nc3o2)c1 [Example 5-53, 2-(3-chlorophenyl)-N-cyclohexyloxazolo[5,4-b]pyridine-5-amine]",39.3
15,"Cc1ccc(-c2nc3ccc(N4CCCCC4)nc3o2)cc1 [Example 5-48, 5-(piperidine-1-yl)-2-p-tolyloxazolo[5,4-b]pyridine]",46.2
16,"Clc1ccc(-c2nc3ccc(N4CCCC4)nc3o2)cc1 [Example 5-35, 2-chlorophenyl-5-(pyrrolidine-1-yl)oxazolo[5,4-b]pyridine]",42.4
17,"c1ccc(CNc2ccc3nc(-c4ccccc4)oc3n2)cc1 [Example 5-57, N-benzyl-2-phenyloxazolo[5,4-b]pyridine-5-amine]",63.1
18,O=[N+]([O-])c1cccc(-c2nc3ccc(N4CCCCC4)nc3o2)c1 [Example 5-43],−21.5
19,Clc1ccc(-c2nc3ccc(N4CCCCC4)nc3o2)cc1 [Example 5-46],56.0
20,"Fc1ccc(-c2nc3ccc(N4CCCCCC4)nc3o2)cc1 [Example 5-56, 5-(azepane-1-yl)-2-(4-fluorophenyl)oxazolo[5,4-b]pyridine]",61.4
21,"Clc1cccc(-c2nc3ccc(NC4CCCC4)nc3o2)c1 [Example 5-51, 2-(3-chlorophenyl)-N-cyclopentyloxazolo[5,4-b]pyridine-5-amine]",37.2
22,"c1ccc(-c2nc3ccc(N4CCCCCC4)nc3o2)cc1 [Example 5-54, 5-(azepane-1-yl)-2-phenyloxazolo[5,4-b]pyridine]",57.5
23,"Clc1cccc(-c2nc3ccc(N4CCCC4)nc3o2)c1 [Example 5-33, 2-chlorophenyl-5-(pyrrolidine-1-yl)oxazolo[5,4-b]pyridine]",14.2
24,"Cc1cccc(-c2nc3ccc(N4CCCCC4)nc3o2)c1 [Example 5-42, 5-(piperidine-1-yl)-2-m-tolyloxazolo[5,4-b]pyridine]",−7.8
25,"c1ccc(-c2nc3ccc(NC4CCCCC4)nc3s2)cc1 [Example 5-52, N-cyclohexyl-2-phenylthiazolo[5,4-b]pyridine-5-amine]",43

# Continued, values first:
row,Remaining activity of MAO-B (%),Compound
1,11.1,"c1ccc(-c2nc3ccc(NC4CCCCC4)nc3o2)cc1 [Example 5-80, N-cyclohexyl-2-phenyloxazolo[5,6-b]pyridine-5-amine]"
2,108.8,CN(Cc1ccccc1)c1ccc2nc(-c3ccc(C#N)cc3)oc2n1 [Example 5-72]
3,43,"CN(Cc1ccccc1)c1ccc2nc(-c3cccc(F)c3)oc2n1 [Example 5-66, N-benzyl-2-(3-fluorophenyl)-N-methyloxazolo[5,4-b]pyridine-5-amine]"
4,24.1,"CN(Cc1ccccc1)c1ccc2nc(-c3ccc(Cl)cc3)oc2n1 [Example 5-68, N-benzyl-2-(4-chlorophenyl)-N-methyloxazolo[5,4-b]pyridine-5-amine]"
5,84.1,"CN(Cc1ccccc1)c1ccc2nc(-c3ccccc3Cl)oc2n1 [Example 5-65, N-benzyl-2-(2-chlorophenyl)-N-methyloxazolo[5,4-b]pyridine-5-amine]"
6,4.14,"CNc1ccc2nc(-c3ccc(Cl)cc3)oc2n1 [Example 5-77, 2-(4-chlorophenyl)-N-methyloxazolo[5,4-b]pyridine-5-amine]"
7,101.2,"CN(Cc1ccccc1)c1ccc2nc(-c3ccc([N+](=O)[O-])cc3)oc2n1 [Example 5-71, N-benzyl-N-methyl-2-(4-nitrophenyl)oxazolo[5,4-b]pyridine-5-amine]"
8,4.4,"CNc1ccc2nc(-c3cccc(Cl)c3)oc2n1 [Example 5-76, 2-(3-chlorophenyl)-N-methyloxazolo[5,4-b]pyridine-5-amine]"
9,45.8,"CNc1ccc2nc(-c3ccc(C)cc3)oc2n1 [Example 5-78, N-methyl-2-p-tolyloxazolo[5,4-b]pyridine-5-amine]"
10,84.1,"Cc1ccc(-c2nc3ccc(N(C)Cc4ccccc4)nc3o2)cc1 [Example 5-69, N-benzyl-N-methyl-2-p-tolyloxazolo[5,4-b]pyridine-5-amine]"
11,42.7,"c1ccc(-c2nc3ccc(NCCN4CCOCC4)nc3s2)cc1 [Example 5-62, N-(2-morpholinoethyl)-2-phenylthiazolo[5,4-b]pyridine-5-amine]"
12,53.2,"CN(Cc1ccccc1)c1ccc2nc(-c3ccccc3)oc2n1 [Example 5-63, N-benzyl-N-methyl-2-phenyloxazolo[5,4-b]pyridine-5-amine]"
13,52.4,"COc1ccc(-c2nc3ccc(N(C)Cc4ccccc4)nc3o2)cc1 [Example 5-70, N-benzyl-2-(4-methoxyphenyl)-N-methyloxazolo[5,4-b]pyridine-5-amine]"
14,47.8,"CN(Cc1ccccc1)c1ccc2nc(-c3ccccc3)sc2n1 [Example 5-64, N-benzyl-N-methyl-2-phenylthiazole[5,4-b]pyridine-5-amine]"
15,51,"CNc1ccc2nc(-c3ccccc3)oc2n1 [Example 5-73, N-methyl-2-phenyloxazolo[5,4-b]pyridine-5-amine]"
16,84.5,"CNc1ccc2nc(-c3ccc(OC)cc3)oc2n1 [Example 5-79, 2-(4-methoxyphenyl)-N-methyloxazolo[5,4-b]pyridine-5-amine]"

# Target: T1, human MAO-B enzyme
# Test: as above
# Type: biochemical
# Settings: activity assay at 0.001, 0.01, 0.1, 1 and 10 uM
row,Compound,IC50 [µM]
1,"c1ccc(-c2nc3ccc(N4CCCCC4)nc3o2)cc1 [Example 5-37, 2-phenyl-5-(piperidine-1-yl)oxazolo[5,4-b]pyridine]",2
2,"Clc1ccccc1-c1nc2ccc(N3CCCC3)nc2o1 [Example 5-32, 2-chlorophenyl-5-(pyrrolidine-1-yl)oxazolo[5,4-b]pyridine]",112
3,"Fc1ccc(-c2nc3ccc(N4CCCCC4)nc3o2)cc1 [Example 5-45, 2-(4-fluorophenyl)-5-(piperidine-1-yl)oxazolo[5,4-b]pyridine]",10.1
4,"COc1ccc(-c2nc3ccc(N4CCCCC4)nc3o2)cc1 [Example 5-49, 2-(4-methoxyphenyl)-5-(piperidine-1-yl)oxazolo[5,4-b]pyridine]",1.52
5,"c1ccc(CNc2ccc3nc(-c4ccccc4)sc3n2)cc1 [Example 5-58, N-benzyl-2-phenylthiazolo[5,4-b]pyridine-5-amine]",1900

# The remaining lines, values ahead:
row,IC50 [µM],Compound
1,5.08,"CN(Cc1ccccc1)c1ccc2nc(-c3ccc(Cl)cc3)oc2n1 [Example 5-68, N-benzyl-2-(4-chlorophenyl)-N-methyloxazolo[5,4-b]pyridine-5-amine]"
2,3.02,"CNc1ccc2nc(-c3ccc(Cl)cc3)oc2n1 [Example 5-77, 2-(4-chlorophenyl)-N-methyloxazolo[5,4-b]pyridine-5-amine]"
3,2.99,"CNc1ccc2nc(-c3cccc(Cl)c3)oc2n1 [Example 5-76, 2-(3-chlorophenyl)-N-methyloxazolo[5,4-b]pyridine-5-amine]"
